Assay results as given in ChEMBL document CHEMBL2073963, “Transport of methotrexate (MTX) and folates by multidrug resistance protein (MRP) 3 and MRP1: effect of polyglutamylation on MTX transport” (Cancer Res, 2001).
Values belong to the compound of their own block, whether it stands above or below them.

What was measured:
Assay type in all cases: functional, cell membranes
Parameters in all cases: scale not given: the % may be the effect or the level left
[1] = target: Multidrug resistance associated protein (Homo sapiens) (UniProt Q96QA9); assay: TP_TRANSPORTER: inhibition of MTX uptake (MTX: 1 uM, PSC-833: 10 uM) in membrane vesicles from MRP3-expressing HEK293 cells; conditions: Membrane vesicle
[2] = target: Multidrug resistance associated protein (Homo sapiens) (UniProt Q96QA9); assay: TP_TRANSPORTER: inhibition of MTX uptake (MTX: 1 uM, GC: 300 uM) in membrane vesicles from MRP3-expressing HEK293 cells; conditions: Membrane vesicle
[3] = target: Multidrug resistance associated protein (Homo sapiens) (UniProt Q96QA9); assay: TP_TRANSPORTER: inhibition of MTX uptake (MTX: 1 uM, E217betaG: 100 uM) in membrane vesicles from MRP3-expressing HEK293 cells; conditions: Membrane vesicle
[4] = target: Multidrug resistance associated protein (Homo sapiens) (UniProt Q96QA9); assay: TP_TRANSPORTER: inhibition of MTX uptake (MTX: 1 uM, DOX;G: 300 uM) in membrane vesicles from MRP3-expressing HEK293 cells; conditions: Membrane vesicle
[5] = target: Multidrug resistance associated protein (Homo sapiens) (UniProt Q96QA9); assay: TP_TRANSPORTER: inhibition of MTX uptake (MTX: 1 uM, Vincristine: 300 uM) in membrane vesicle from MRP3-expessing HEK 293 cell; conditions: HEK293
[6] = target: Multidrug resistance associated protein (Homo sapiens) (UniProt Q96QA9); assay: TP_TRANSPORTER: inhibition of MTX uptake (MTX: 1 uM, PAK-104P: 100 uM) in membrane vesicles from MRP3-expressing HEK293 cells; conditions: Membrane vesicle
[7] = target: Multidrug resistance associated protein (Homo sapiens) (UniProt Q96QA9); assay: TP_TRANSPORTER: inhibition of MTX uptake (MTX: 1 uM, VP-16: 300 uM) in membrane vesicles from MRP3-expressing HEK293 cells; conditions: Membrane vesicle
[8] = target: Multidrug resistance associated protein (Homo sapiens) (UniProt Q96QA9); assay: TP_TRANSPORTER: inhibition of MTX uptake (MTX: 1 uM, AG-A: 1000 uM) in membrane vesicles from MRP3-expressing HEK293 cells; conditions: Membrane vesicle
[9] = target: Multidrug resistance associated protein (Homo sapiens) (UniProt Q96QA9); assay: TP_TRANSPORTER: inhibition of MTX uptake (MTX: 1 uM, MK571: 100 uM) in membrane vesicles from MRP3-expressing HEK293 cells; conditions: Membrane vesicle

Sequence of Multidrug resistance associated protein (Homo sapiens) (Q96QA9 as listed by the source): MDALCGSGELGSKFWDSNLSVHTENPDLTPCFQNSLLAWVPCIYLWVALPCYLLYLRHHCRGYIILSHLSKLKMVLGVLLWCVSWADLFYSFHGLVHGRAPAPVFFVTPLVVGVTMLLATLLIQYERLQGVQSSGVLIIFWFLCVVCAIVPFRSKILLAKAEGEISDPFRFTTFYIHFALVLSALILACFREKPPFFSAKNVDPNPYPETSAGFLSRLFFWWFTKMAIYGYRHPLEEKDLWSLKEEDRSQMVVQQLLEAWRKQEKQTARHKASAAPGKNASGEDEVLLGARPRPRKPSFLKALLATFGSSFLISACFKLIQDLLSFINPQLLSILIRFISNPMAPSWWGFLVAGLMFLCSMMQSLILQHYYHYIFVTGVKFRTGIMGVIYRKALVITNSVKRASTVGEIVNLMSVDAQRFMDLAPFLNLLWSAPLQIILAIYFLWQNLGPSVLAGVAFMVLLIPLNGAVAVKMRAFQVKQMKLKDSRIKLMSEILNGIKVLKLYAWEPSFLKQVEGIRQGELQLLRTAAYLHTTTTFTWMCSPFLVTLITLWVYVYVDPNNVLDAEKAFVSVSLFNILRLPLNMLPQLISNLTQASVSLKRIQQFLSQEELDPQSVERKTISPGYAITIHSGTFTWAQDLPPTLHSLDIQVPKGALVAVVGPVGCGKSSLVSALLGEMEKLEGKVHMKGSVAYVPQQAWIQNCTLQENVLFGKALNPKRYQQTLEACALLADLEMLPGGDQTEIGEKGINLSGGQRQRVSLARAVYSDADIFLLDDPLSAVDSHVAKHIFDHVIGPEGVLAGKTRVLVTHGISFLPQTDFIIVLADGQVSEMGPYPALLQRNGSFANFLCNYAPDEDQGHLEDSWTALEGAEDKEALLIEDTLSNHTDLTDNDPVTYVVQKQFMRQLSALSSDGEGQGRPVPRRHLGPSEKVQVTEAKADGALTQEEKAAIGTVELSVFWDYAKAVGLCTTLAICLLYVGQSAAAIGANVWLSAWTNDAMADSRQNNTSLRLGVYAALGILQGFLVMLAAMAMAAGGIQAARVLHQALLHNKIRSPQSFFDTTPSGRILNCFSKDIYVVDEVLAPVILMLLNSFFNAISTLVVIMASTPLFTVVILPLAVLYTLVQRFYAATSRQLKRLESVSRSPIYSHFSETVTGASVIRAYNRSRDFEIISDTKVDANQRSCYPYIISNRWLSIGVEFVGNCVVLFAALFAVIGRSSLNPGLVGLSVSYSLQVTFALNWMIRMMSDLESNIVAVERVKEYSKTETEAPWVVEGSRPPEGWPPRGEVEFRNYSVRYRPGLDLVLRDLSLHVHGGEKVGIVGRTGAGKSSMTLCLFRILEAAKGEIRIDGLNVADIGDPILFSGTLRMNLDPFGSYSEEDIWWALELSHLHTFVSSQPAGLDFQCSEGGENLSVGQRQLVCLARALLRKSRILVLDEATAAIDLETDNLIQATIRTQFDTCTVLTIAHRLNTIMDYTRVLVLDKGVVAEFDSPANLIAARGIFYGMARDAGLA

- Activity [1]: 61.4%
SMILES: C/C=C/C[C@@H](C)C(=O)[C@H]1C(=O)N[C@@H](C(C)C)C(=O)N(C)CC(=O)N(C)[C@@H](CC(C)C)C(=O)N[C@@H](C(C)C)C(=O)N(C)[C@@H](CC(C)C)C(=O)N[C@@H](C)C(=O)N[C@H](C)C(=O)N(C)[C@@H](CC(C)C)C(=O)N(C)[C@@H](CC(C)C)C(=O)N(C)[C@@H](C(C)C)C(=O)N1C

- Activity [2]: 10.4%
SMILES: C[C@H](CCC(=O)NCC(=O)O)[C@H]1CC[C@H]2[C@@H]3[C@H](O)C[C@@H]4C[C@H](O)CC[C@]4(C)[C@H]3C[C@H](O)[C@]12C

SMILES: C[C@]12CC[C@@H]3c4ccc(O)cc4CC[C@H]3[C@@H]1CC[C@@H]2O[C@@H]1O[C@H](C(=O)O)[C@@H](O)[C@H](O)[C@H]1O
- Activity [3]: 8.27%

- Activity [4]: 80%
SMILES: COc1cccc2c1C(=O)c1c(O)c3c(c(O)c1C2=O)C[C@@](O)(C(=O)CO)C[C@@H]3O[C@H]1C[C@H](N)[C@H](O)[C@H](C)O1

- Activity [5]: 39.1%
SMILES: CC[C@]1(O)C[C@H]2CN(CCc3c([nH]c4ccccc34)[C@@](C(=O)OC)(c3cc4c(cc3OC)N(C=O)[C@H]3[C@@](O)(C(=O)OC)[C@H](OC(C)=O)[C@]5(CC)C=CCN6CC[C@]43[C@@H]65)C2)C1

- Activity [6]: 3%
SMILES: Cc1nc(C)c(P2(=O)O[C@H](C)C[C@@H](C)O2)c(-c2cccc([N+](=O)[O-])c2)c1C(=O)OCCN1CCN(C(c2ccccc2)c2ccccc2)CC1 (some centres undefined)

- Activity [7]: 3.47%
SMILES: COc1cc([C@@H]2c3cc4c(cc3[C@@H](O[C@@H]3O[C@@H]5CO[C@@H](C)O[C@H]5[C@H](O)[C@H]3O)[C@H]3COC(=O)[C@H]23)OCO4)cc(OC)c1O

- Activity [8]: 56.9%
SMILES: CC(=O)O[C@@H]1[C@@H]2[C@@H](OC(C)=O)C=C3[C@H]([C@H](O)C[C@]4(C)[C@@H]([C@H](C)[C@H](O)CCC(C)C)CC[C@@H]34)[C@@]2(C)CC[C@@H]1OC(C)=O

- Activity [9]: 2.3%
SMILES: CN(C)C(=O)CCSC(SCCC(=O)O)c1cccc(/C=C/c2ccc3ccc(Cl)cc3n2)c1 (centres undefined)
